In patent US20080004272A1, “Compositions and methods for modulating gated ion channels” (PainCeptor Pharma Corporation, priority 2006, published 2008):

Tests used:
ASIC1a [1] = target: T1, ASIC1a (Homo sapiens, UniProt P78348); experiment: Two-electrode voltage clamp in Xenopus laevis oocytes (Xo), acid-induced currents; assay type: cell-based; set-up: expressed in transfected cells; host or cells: Xenopus laevis oocytes (nuclear microinjection of expression vector such as pcDNA3); conditions: Xenopus oocytes; for inhibition at 50 µM: read-out: % inh. at 50 μM (Xo)
T1 sequence (P78348 1-528): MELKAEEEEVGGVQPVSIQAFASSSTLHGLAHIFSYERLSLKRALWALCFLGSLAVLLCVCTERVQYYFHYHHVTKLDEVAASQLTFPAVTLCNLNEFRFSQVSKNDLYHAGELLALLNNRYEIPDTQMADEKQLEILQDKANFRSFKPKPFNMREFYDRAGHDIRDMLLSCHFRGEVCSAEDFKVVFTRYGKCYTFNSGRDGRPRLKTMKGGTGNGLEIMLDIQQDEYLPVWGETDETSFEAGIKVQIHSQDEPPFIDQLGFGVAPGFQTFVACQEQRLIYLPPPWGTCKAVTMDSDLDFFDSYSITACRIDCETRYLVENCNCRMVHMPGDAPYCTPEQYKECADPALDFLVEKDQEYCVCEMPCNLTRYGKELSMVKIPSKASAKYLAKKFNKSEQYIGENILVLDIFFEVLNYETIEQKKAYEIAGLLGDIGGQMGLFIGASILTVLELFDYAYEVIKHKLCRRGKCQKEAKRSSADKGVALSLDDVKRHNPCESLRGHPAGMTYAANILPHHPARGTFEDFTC
Procedure: Two-electrode voltage clamp electrophysiological assays in Xenopus laevis oocytes expressing gated ion channels are performed as follows:
Oocytes are surgically removed from adult Xenopus laevis and treated for 2 h at room temperature with 1 mg/ml type I collagenase (Sigma) in Barth's solution under mild agitation. Selected oocytes at stage IV-V are defolliculated manually before nuclear microinjection of 2.5-5 ng of a suitable expression vector, such as pcDNA3, comprising the nucleotide sequence encoding a gated ion channel subunit protein. In such an experiment, the oocytes express homomultimeric proton-gated ion channels on their surface. In an alternate experiment, one, two, three or more vectors comprising the coding sequences for distinct gated ion channel subunits are co-injected in the oocyte nuclei. In the latter case, oocytes express heteromultimeric proton-gated ion channels. For example, ASIC2a and/or ASIC3 subunits in pcDNA3 vector are co-injected at a 1:1 cDNA ratio. After 2-4 days of expression at 19° C. in Barth's solution containing […] gentamicin and 1.8 mM CaCl2, gated ion channels are activated by applying an acidic solution (pH<7) and currents are recorded in a two electrode voltage-clamp configuration, using an OC-725B amplifier (Warner Instruments). Currents are acquired and digitized at 500 Hz on an Apple Imac G3 computer with an A/D NB-MIO-16XL interface (National Instruments) and recorded traces are post-filtered at 100 Hz in Axograph (Axon Instruments) (Neher, E. and Sakmann, B. (1976) Nature 260:799-802). Once impaled with the microelectrodes, oocytes are continuously superfused at 10-12 ml/min with a modified Ringer's solution containing 97 mM NaCl, 2 mM KCl, 1.8 mM CaCl2, and 10 mM HEPES brought to pH 7.4 with NaOH (Control Ringer). Test Ringer solution is prepared by replacing HEPES with MES and adjusting the pH to the desired acidic value. Compounds of the present invention are prepared in both the Control and Test Ringer solutions and applied to oocytes at room temperature through a computer-controlled switching valve system. Osmolarity of all solutions is adjusted to 235 mOsm with choline chloride. Similarly, recordings can also be acquired in an automated multichannel oocytes system as the OpusExpress™ (Molecular Devices, Sunnyvale, USA).
FIGS. 1A and 2A illustrate the inhibitory effects of Compounds 203 and 206 on acid-induced activation of recombinant homomeric hASIC1a channels.

ASIC1a [2] = target: T1, ASIC1a; experiment: Calcium imaging of MES-induced calcium response (FLIPR); assay type: cell-based; set-up: host or cells: HEK293; conditions: ASIC1a expressing HEK293 cells, MES-induced calcium response; read-out: IC50 (FLIPR)
Procedure: […] Confluency of cells should be 80-90% on day of plating. Cells are rinsed with 10 ml of PBS and cells are re-suspended by addition of culture medium and trituration with a 25 ml pipette.
The cells are seeded at a density of approximately 1×10^6 cells/ml (100 μl/well) in black-walled, clear bottom, 96-well plates pre-treated with 10 mg/l poly-D-lysin (75 μl/well for ≧30 min). Plated cells are allowed to proliferate for 24 h before loading with dye.
Fluo-4/AM (1 mg, Molecular Probes) is dissolved in 912 μl DMSO. The Fluo-4/AM stock solution (1 mM) is diluted with culture medium to a final concentration of 2 μM (loading solution).
The culture medium is aspirated from the wells, and 50 μl of the Fluo-4/AM loading solution is added to each well. The cells are incubated at 37° C. for 30 min.
Following the second wash, 100 μl modified Assay Buffer is added to each well and the fluorescence is measured in FLIPR™ or FlexStation™ (Molecular Devices, USA), or any other suitable equipment known to the skilled in the art.
Temperature: Room temperature (20-22° C.)
First addition: 50 μl test solution at a rate of 30 μl/sec and a starting height of […]
Second addition: 50 μl MES solution (20 mM, 5 mM final concentration) at a rate of 35 μl/sec and a starting height of 150 μl.
Reading intervals: pre-incubation−10 sec×7 and 3 sec×3 antagonist phase−3 sec×7 and 10 sec×12
Addition plates (compound test plate and MES plate) are placed on the right and left positions in the FLIPR tray, respectively. Cell plates are placed in the middle position and the ASIC1a program is effectuated. FLIPR will then take the appropriate measurements in accordance with the interval settings above. Fluorescence obtained after stimulation is corrected for the mean basal fluorescence (in modified Assay Buffer).
The MES-induced peak calcium response, in the presence of test substance, is expressed relatively to the MES response alone. Test substances that block the MES-induced calcium response are re-tested in triplicates.

Row | Compound | inhibition at 50 µM (ASIC1a [1]) [%] | also measured
1 | CN1CCc2c(-c3ccccc3)cc(C#N)c(Cl)c2C1 [Compound 176] | < 25 | 
2 | CN1CCc2c(Br)ccc(NC(=O)CCl)c2C1 [Compound 146] | < 25 | 
3 | COC(=O)c1ccccc1CO/N=C1/C(=O)Nc2c1cc(-c1ccccc1)c1c2CN(C)CC1 [Compound 65] | 20 to 40 | 
4 | CC(=O)OCCOCO/N=C1/C(=O)Nc2c1cc(-c1ccccc1)c1c2CN(C)CC1 [Compound 64] | < 25 | 
5 | COc1ccc(F)cc1Oc1cc2c(c3c1CCN(C)C3)NC(=O)/C2=N/O [Compound 12] | 50 to 70 | 
6 | COC(=O)CN(C(C)=O)c1ccc(-c2ccccc2)c2c1CN(C)CC2 [Compound 169] | < 25 | 
7 | CN1CCc2c(-c3ccccc3)cc(/C(N)=N/O)c(N)c2C1 [Compound 207] | > 50 | 
8 | COc1ccc(F)cc1Nc1ccc(N)c2c1CCN(C)C2 [Compound 7] | < 25 | 
9 | CN1CCc2c(-c3ccccc3)cc(C#N)c(Br)c2C1 [Compound 175] | < 25 | 
10 | CCOC(C)O/N=C1/C(=O)Nc2c1cc(-c1ccccc1)c1c2CN(C)CC1 (centres unmarked) [Compound 63] | 30 to 50 | 
11 | COCCOCO/N=C1/C(=O)Nc2c1cc(-c1ccccc1)c1c2CN(C)CC1 [Compound 62] |  | inhibition at 100 µM (ASIC1a [1]; 100 μM, read-out: % inh. at 100 μM (Xo)): > 50%
12 | O=C(/C=N/O)Nc1ccc(-c2ccccc2)c2c1CNCC2 [Compound 171] | < 25 | 
13 | COC(=O)CNc1ccc(-c2ccccc2)c2c1CN(C)CC2 [Compound 205, (2-Methyl-5-phenyl-1,2,3,4-tetrahydro-isoquinolin-8-ylamino)-acetic acid methyl ester] | 20 to 40 | 
14 | CN1CCc2c(-c3ccccc3)cc3c(c2C1)NCC/C3=N/O [Compound 96] | 20 to 40 | 
15 | COc1ccc(F)cc1Oc1ccc([N+](=O)[O-])c2c[n+](C)ccc12 [Compound 11] | < 25 | 
16 | COc1ccc(F)cc1Oc1ccc([N+](=O)[O-])c2cnccc12 [Compound 8] | < 25 | 
17 | CC(=O)Nc1c(C(N)=O)cc(-c2ccccc2)c2c1CN(C)CC2 [Compound 164] | < 25 | 
18 | C/C(=N\O)c1c2c(c(O)c3c1OCO3)CN(C)CC2 [Compound 57] |  | IC50 (ASIC1a [2]): > 70 µM
19 | CCN1CCc2c(-c3ccccc3)cc3c(c2C1)N(CC(=O)OC)C(=O)C3=NO [Compound 73, (8-Ethyl-3-hydroxyimino-2-oxo-5-phenyl-2,3,6,7,8,9-hexahydro-pyrrolo[3,2-h]isoquinolin-1-yl)-acetic acid methyl ester] |  | IC50 (ASIC1a [2]): < 20 µM
20 | CC(=O)Nc1c([N+](=O)[O-])cc(-c2ccccc2)c2c1CN(C)CC2 [Compound 154] |  | IC50 (ASIC1a [2]): > 70 µM
21 | Cc1ccccc1-c1cc2c(c3c1CCN(C)C3)NC(=O)/C2=N/O [Compound 41] |  | IC50 (ASIC1a [2]): < 10 µM
22 | O=C1Nc2c(cc(-c3ccccc3)c3c2CCCC3)/C1=N/O [Compound 114] |  | IC50 (ASIC1a [2]): > 70 µM
23 | O=C(/C=N/O)Nc1ccc(-c2ccccc2)c2ccncc12 [Compound 152] |  | IC50 (ASIC1a [2]): > 70 µM
24 | CN1CCc2c(-c3ccccc3)ccc(NC(=O)CC(=O)O)c2C1 [Compound 153] |  | IC50 (ASIC1a [2]): > 70 µM
25 | CN1CCc2c(-c3cccc(OC(F)(F)F)c3)cc3c(c2C1)NC(=O)/C3=N/O [Compound 51] |  | IC50 (ASIC1a [2]): > 70 µM
26 | CN1CCc2c(-c3cccc(N)c3)cc3c(c2C1)NC(=O)/C3=N/O [Compound 48] |  | IC50 (ASIC1a [2]): > 70 µM
27 | COc1cccc(-c2cc3c(c4c2CCN(C)C4)NC(=O)/C3=N\O)c1 [Compound 43] |  | IC50 (ASIC1a [2]): < 10 µM
28 | COc1c(F)cc(F)cc1-c1cc2c(c3c1CCN(C)C3)NC(=O)/C2=N/O [Compound 60] |  | IC50 (ASIC1a [2]): > 70 µM

Now from value to molecule, other results behind:

Row | inhibition at 50 µM (ASIC1a [1]) [%] | Compound | also measured
29 | < 25 | CCN(CC)C(=O)c1cc(-c2cc(F)ccc2OC)cc(C)c1NC(=O)N1CCN(C(C)C)CC1 [Compound 193, 4-Isopropyl-piperazine-1-carboxylic acid (5-diethylcarbamoyl-5′-fluoro-2′-methoxy-3-methyl-biphenyl-4-yl)-amide] | 
30 | < 25 | CNN=C1C(=O)Nc2c1cc(-c1ccccc1)c1c2CN(C)CC1 [Compound 108] | 
31 | < 25 | CCN1CCc2c(-c3ccccc3)cc3[nH]c(=O)[nH]c3c2C1 [Compound 222] | 
32 | < 25 | CN1CCc2c(-c3ccccc3)cc3c(c2C1)NC(=O)C3=NNCCO [Compound 109] | 
33 | 20 to 40 | CC(C)(C)OC(=O)N1CCc2c(-c3ccccc3)ccc(NCC(=O)O)c2C1 [Compound 165] | 
34 | < 25 | CCN(CC)C(=O)c1cc(-c2cc(F)ccc2OC)cc(C)c1N(C(=O)N1CCOCC1)C(=O)N1CCOCC1 [Compound 190, Morpholine-4-carboxylic acid (5-diethylcarbamoyl-5′-fluoro-2′-methoxy-3-methyl-biphenyl-4-yl)-(morpholine-4-carbonyl)-amide] | 
35 | < 25 | CN1CCc2c(-c3ccccc3)cc3ncc(O)nc3c2C1 [Compound 101] | 
36 | < 25 | CCOC(=O)N1CCc2c(Br)cc(C(=O)CCl)c(N)c2C1 [Compound 163] | 
37 | < 25 | CCN(CC)C(=O)c1cc(-c2cc(F)ccc2OC)cc(C)c1NC(=O)N(C)C [Compound 191, 4-(3,3-Dimethyl-ureido)-5′-fluoro-2′-methoxy-5-methyl-biphenyl-3-carboxylic acid diethylamide] | 
38 | < 25 | COC(=O)CNc1ccc(-c2ccccc2)c2c1CN(C(=O)OC(C)(C)C)CC2 [Compound 167] | 
39 | < 25 | CN1CCc2c(-c3ccccc3)cc(C(=O)NOCc3ccccc3)c(N)c2C1 [Compound 166] | 
40 | < 25 | CCN(CC)C(=O)c1cc(-c2cc(F)ccc2OC)cc(C)c1NC(=O)N1CCNC1=O [Compound 192, 2-Oxo-imidazolidine-1-carboxylic acid (5-diethylcarbamoyl-5′-fluoro-2′-methoxy-3-methyl-biphenyl-4-yl)-amide] | 
41 | < 25 | COc1ccc(F)cc1-c1cc(C#N)c(N(S(C)(=O)=O)S(C)(=O)=O)c2c1CCN(C)C2 [Compound 196, N-[7-Cyano-5-(5-fluoro-2-methoxy-phenyl)-2-methyl-1,2,3,4-tetrahydro-isoquinolin-8-yl]-dimethanesulfonamide] | 
